The structures appear in SMILES notation.

A short description of series [1]: Appetite in Htr1aPomc-/- mice treated with LY426965. It counts as in vivo. The method, then: These two hypotheses were tested through the use of a small molecule that selectively antagonizes signaling through Htr1a receptor. Other Htr1a and 2b receptor antagonists for use in the present invention are discussed below.
Animals were housed under 12 h light/12 h dark conditions with ad libitum access to food and water, and were used after a minimum of 4 days of acclimatization to the housing conditions. Control, Htr1aPomc−/−, Htr2bPomc−/−, Htr1a; 2 bPomc−/−, CrebPomc−/− mice were separated into individual cages one day prior to the experiment. Food intake and energy expenditure was measured every 12 hours for 36 hours essentially as described previously (6, 17).

Series [2] can be described thus: Food intake in leptin-deficient ob/ob mice after a single dose of LY426965. The series is classed as in vivo. The following applies: 4-week old ob/ob mice, single dose 0.2 mg/20 g of body weight, 12, 24 and 36 h later. The method, then: (§1) To determine whether LY426965 could decrease appetite in leptin-deficient ob/ob mice, we administered 4-week old ob/ob mice with a single dose of LY426965 (0.2 mg/20 g of body weight) and measured food intake 12, 24 and 36 h later. […] Experiments were conducted to determine whether LY426965 could rescue, at least in part, the obesity of ob/ob mice if administered chronically, once mice had already developed an obesity phenotype. 4-week old ob/ob mice were administered daily with 20 mg/kg body weight dose of LY426965 for 4 additional weeks.
(§2) One or 3-month old C57B1/6J inbred female mice were used in these experiments. Two different experimental regimens were utilized to assess the effect of LY426965 on appetite in WT and ob/ob mice.

Series [3] is described as follows: Mass spectrometric analysis of mice hypothalami after administration of the compound. The series is classed as in vivo. The method, then:
(§3) This decrease in food intake reached 77% of control values when using 20 mg/kg of the compound (FIG. 19 C). […] Thus LY426965 decreases appetite in WT mice by inhibiting serotonin signaling through the Htr1a receptor that is located in the hypothalamus.

Series [4] can be described thus: Chronic treatment of ob/ob mice with LY426965. The following applies: 20 mg/kg body weight daily for 4 weeks from 4 weeks of age. The series is classed as in vivo. The method, then:
as §1
In this experiment one-month old WT and ob/ob mice (housed individually in metabolic cages) were divided into different groups and injected with the LY426965 dissolved in water and diluted in saline (final concentration 0.9%) once a day, 2 hours prior to the commencement of the dark cycle, for 4 weeks. Body weight was recorded everyday and dose of the drug and vehicle adjusted accordingly. At the end of the experiment all mice were subjected to measurement of food intake every 12 hours over a period of 36 hours.

The target of series [5] is T1, Htr1a receptor (Homo sapiens, UniProt P08908).
T1 sequence (P08908 1-422): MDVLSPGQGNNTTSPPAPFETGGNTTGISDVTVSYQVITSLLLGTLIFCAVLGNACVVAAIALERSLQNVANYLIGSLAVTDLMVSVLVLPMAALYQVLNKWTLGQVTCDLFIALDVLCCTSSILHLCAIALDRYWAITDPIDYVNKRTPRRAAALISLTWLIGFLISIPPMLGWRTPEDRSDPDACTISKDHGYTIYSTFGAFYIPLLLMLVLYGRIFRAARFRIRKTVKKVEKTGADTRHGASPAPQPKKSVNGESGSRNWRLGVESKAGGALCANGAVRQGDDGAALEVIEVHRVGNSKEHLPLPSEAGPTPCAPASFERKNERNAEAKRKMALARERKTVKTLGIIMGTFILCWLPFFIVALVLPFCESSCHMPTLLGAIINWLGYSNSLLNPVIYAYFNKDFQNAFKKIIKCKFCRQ
The following applies: cited from earlier work.

A short description of series [6]: Acute dose response of LY426965 on food intake in WT mice. It counts as in vivo. As for the experimental part: as §3, §2
Animals were separated into individual cages one day prior to the experiment. Compound LY426965 was dissolved in water and fed orally (Gavage) according to the weight of the mouse at doses 1, 5, 10 and 20 mg/kg BW two hours prior to the commencement of the dark cycle. Control animals received the same volume of vehicle. Food intake was measured every 12 hours for 36 hours after giving one dose of the antagonist.

Regarding `COc1ccccc1N1CCN(CC[C@](C)(C(=O)C2CCCCC2)c2ccccc2)CC1` [LY426965], the appetite result in series [1] is “not decreased”. For the same compound, in series [2], the “food intake lower than in vehicle-treated mice” value was 20-25%. Besides, in series [3], the “compound reaching the hypothalamus” value is “could reach the hypothalamus”. In addition, the obesity phenotype entry in series [4] is recorded as “significantly decreased the obesity phenotype”. Besides, the “selectivity over other serotonin and non-serotonin receptor subtypes” value in series [5] is at least 20 fold. Moreover, in series [5] (read-out: affinity for the Htr1a receptor (Ki)), the Ki is 4.66 nM. For the same compound, the “decrease in food intake” value in series [6] (20 mg/kg, WT mice) is on record as 77 % of control values. Besides, the “appetite (dose response)” value in series [6] (1 to 20 mg/kg of body weight fed to 12 week-old C57B16/J mice) is reported as “dose-dependent decrease in appetite”.

Usually Ki stands for the dissociation constant of the complex between target and ligand, obtained from inhibition or displacement.

The values are drawn from patent US20120115778A1, “Methods of Suppressing Appetite by the Administration of Antagonists of the Serotonin HTR1a or HTR2b Receptors or Inhibitors of TPH2” (The Trustees of Columbia University in the City of New York, priority 2009, published 2012).
